From US9918985B2, “Compounds and their use as BACE inhibitors” (ASTRAZENECA AB, priority 2010, dated 2018) come the findings set out here.

Test [1] concerns sAPPβ release in SH-SY5Y cells. The experiment in a line: sAPPβ release assay. The note with it: 17 h incubation. Type of test: cell-based. The method, then:
Thaw cells and seed at a conc. of around 10000 cells/well in DMEM/F-12 with Glutamax, 10% FCS and 1% non-essential amino acids to a 384-well tissue culture treated plate, 100 μL cell susp/well. […] The cell medium was removed, followed by addition of 30 μL compound diluted in DMEM/F-12 with Glutamax, 10% FCS, 1% non-essential amino acids and 1% PeSt to a final conc. of 1% DMSO. The compounds were incubated with the cells for 17 h (overnight) at 37° C., 5% CO2. Meso Scale Discovery (MSD) plates were used for the detection of sAPPIβ release. MSD sAPPIβ plates were blocked in 1% BSA in Tris wash buffer (40 μL/well) for 1 h on shake at r.t. and washed 1 time in Tris wash buffer (40 μL/well). 20 μL of medium was transferred to the pre-blocked and washed MSD sAPPIβ microplates, and the cell plates were further used in an ATP assay to measure cytotoxicity. The MSD plates were incubated with shaking at r.t. for 2 h and the media discarded. 10 μL detection antibody was added (1 nM) per well followed by incubation with shaking at r.t. for 2 h and then discarded. 40 μL Read Buffer was added per well and the plates were read in a SECTOR Imager.

In test [2] the target is human β-Secretase (soluble part, sBACE-Fc) (Homo sapiens (Human), UniProt P56817). The experiment in a line: TR-FRET assay. The conditions noted are these: standard TR-FRET assay, 15 minutes reaction at r.t. It counts as biochemical. Here is the method: The β-secretase enzyme used in the TR-FRET is prepared as follows:
The cDNA for the soluble part of the human β-Secretase (AA 1-AA 460) was cloned using the ASP2-Fc10-1-IRES-GFP-neoK mammalian expression vector. The gene was fused to the Fc domain of IgG1 (affinity tag) and stably cloned into HEK 293 cells.
The robotic systems Biomek FX and Velocity 11 were used for all liquid handling and the enzyme and substrate solutions were kept on ice until they were placed in the robotic system. Enzyme (9 μl) was added to the plate then 1 μl of compound in dimethylsulphoxide was added, mixed and pre-incubated for 10 minutes. Substrate (10 μl) was then added, mixed and the reaction proceeded for 15 minutes at r.t. The reaction was stopped with the addition of Stop solution (7 μl, NaAcetate, pH 9). […] The dimethylsulphoxide control, instead of test compound, defined the 100% activity level and 0% activity was defined by wells lacking enzyme (replaced with reaction buffer).

In general, IC50 refers to the point on the concentration scale where inhibition reaches its midpoint. A high value points to weaker potency in that assay.

Chain of human β-Secretase (soluble part, sBACE-Fc) (P56817 22-460): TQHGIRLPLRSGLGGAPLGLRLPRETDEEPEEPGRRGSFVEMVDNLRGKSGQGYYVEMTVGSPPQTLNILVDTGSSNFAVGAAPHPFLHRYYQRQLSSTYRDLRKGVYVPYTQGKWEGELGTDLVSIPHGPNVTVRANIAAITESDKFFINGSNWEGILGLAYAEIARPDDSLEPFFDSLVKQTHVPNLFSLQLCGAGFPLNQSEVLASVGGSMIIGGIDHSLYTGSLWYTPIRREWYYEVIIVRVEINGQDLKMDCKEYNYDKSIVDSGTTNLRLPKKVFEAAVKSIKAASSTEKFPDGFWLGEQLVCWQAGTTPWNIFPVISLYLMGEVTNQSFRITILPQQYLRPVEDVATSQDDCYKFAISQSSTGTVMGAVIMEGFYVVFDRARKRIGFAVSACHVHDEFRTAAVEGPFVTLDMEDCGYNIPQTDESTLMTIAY

In test [1], `CCC1=NC2(N=C1N)c1cc(-c3cncc(Cl)c3)ccc1C[C@]21CC[C@@H](OC)CC1` (single isomer, unassigned; isomer 1) [Example 66 Isomer 1, (1r,4r)-6′-(5-chloropyridin-3-yl)-5″-ethyl-4-methoxy-3′H-dispiro[cyclohexane-1,2′-indene-1′,2″-imidazol]-4″-amine] gave an IC50 of 1.6 nM.
The compound `CC#Cc1cncc(-c2ccc3c(c2)C2(N=C(N)C(CC)=N2)[C@]2(CC[C@H](OC)CC2)C3)c1` (single isomer, unassigned; isomer 1) [Example 68 Isomer 1, (1r,4r)-5″-ethyl-4-methoxy-6′-[5-(prop-1-yn-1-yl)pyridin-3-yl]-3′H-dispiro[cyclohexane-1,2′-indene-1′,2″-imidazol]-4″-amine] registered an IC50 in test [1] of 0.38 nM.
`CCC1=NC2(N=C1N)c1cc(-c3cccc(C#N)c3)ccc1C[C@]21CC[C@@H](OC)CC1` (single isomer, unassigned; isomer 1) [Example 71 Isomer 1, 3-[(1r,4r)-4″-amino-5″-ethyl-4-methoxy-3′H-dispiro-[cyclohexane-1,2′-indene-1′,2″-imidazol]-6′-yl]benzonitrile] came in with an IC50 in test [1] of 5.2 nM.
For `CCC1=NC2(N=C1N)c1cc(-c3cccc(C#N)c3)ccc1C[C@]21CC[C@@H](OC)CC1` (single isomer, unassigned; isomer 2) [Example 71 Isomer 2, 3-[(1r,4r)-4″-amino-5″-ethyl-4-methoxy-3′H-dispiro-[cyclohexane-1,2′-indene-1′,2″-imidazol]-6′-yl]benzonitrile], the IC50 in test [1] was determined as 763 nM.
On to `CO[C@H]1CC[C@]2(CC1)Cc1ccc(-c3ccc(F)cc3F)cc1[C@@]21N=C(C)C(N)=N1` [Example 103, (1r,1′R,4R)-6′-(2,4-Difluorophenyl)-4-methoxy-5″-methyl-3′H-dispiro[cyclohexane-1,2′-indene-1′,2″-imidazol]-4″-amine], for which the IC50 in test [2] stood at 34 nM.
Regarding `CCO[C@H]1CC[C@]2(CC1)Cc1ccc(Br)cc1C21N=C(C)C(N)=N1` (stereo partly drawn) [Example 130, (1r,4r)-6′-Bromo-4-ethoxy-5″-methyl-3′H-dispiro[cyclohexane-1,2′-indene-1′,2″-imidazol]-4″-amine], in test [2], the IC50 turned out to be 842 nM.
